Like-named read-outs stand apart in the source and are kept apart here.
Assays:
[1] = tested on: HCV replicon in HUH-7 cells; assay: HCV replicon FRET assay; assay type: cell-based, HCV strain 1b; details: Hepatitis C virus
Source text: An HCV replicon whole cell system was established as described by Lohmann V, Korner F, Koch J, Herian U, Theilmann L, Bartenschlager R., Science 285(5424):110-3 (1999). This system enabled us to evaluate the effects of our HCV Protease compounds on HCV RNA replication. Briefly, using the HCV strain 1b sequence described in the Lohmann paper (Assession number: AJ238799), an HCV cDNA was synthesized by Operon Technologies, Inc. (Alameda, Calif.), and the full-length replicon was then assembled in plasmid pGem9zf(+) (Promega, Madison, Wis.) using standard molecular biology techniques. The replicon consists of (i) the HCV 5′ UTR fused to the first 12 amino acids of the capsid protein, (ii) the neomycin phosphotransferase gene (neo), (iii) the IRES from encephalomyocarditis virus (EMCV), and (iv) HCV NS3 to NS5B genes and the HCV 3′ UTR. Plasmid DNAs were linearized with ScaI and RNA transcripts were synthesized in vitro using the T7 MegaScript transcription kit (Ambion, Austin, Tex.) according to manufacturer's directions. In vitro transcripts of the cDNA were transfected into the human hepatoma cell line, HUH-7. […] Resulting cell lines were characterized for positive and negative strand RNA production and protein production over time.
The HCV replicon FRET assay was developed to monitor the inhibitory effects of compounds described in the disclosure on HCV viral replication. HUH-7 cells, constitutively expressing the HCV replicon, were grown in Dulbecco's Modified Eagle Media (DMEM) (Gibco-BRL) containing 10% Fetal calf serum (FCS) (Sigma) and 1 mg/ml G418 (Gibco-BRL). Cells were seeded the night before (1.5×10^4 cells/well) in 96-well tissue-culture sterile plates. Compound and no compound controls were prepared in DMEM containing 4% FCS, 1:100 Penicillin/Streptomysin (Gibco-BRL), 1:100 L-glutamine and 5% DMSO in the dilution plate (0.5% DMSO final concentration in the assay). Compound/DMSO mixes were added to the cells and incubated for 4 days at 37° C. After 4 days, cells were first assessed for cytotoxicity using alamar Blue (Trek Diagnotstic Systems) for a CC50 reading. The toxicity of compound (CC50) was determined by adding 1/10th volume of alamar Blue to the media incubating the cells. After 4 hours, the fluorescence signal from each well was read, with an excitation wavelength at 530 nm and an emission wavelength of 580 nm, using the Cytofluor Series 4000 (Perspective Biosystems). Plates were then rinsed thoroughly with Phosphate-Buffered Saline (PBS) (3 times 150 μl). The cells were lysed with 25 μl of a lysis assay reagent containing an HCV protease substrate (5× cell Luciferase cell culture lysis reagent (Promega #E153A) diluted to 1× with distilled water, NaCl added to 150 mM final, the FRET peptide substrate (as described for the enzyme assay above) diluted to 10 μM final from a 2 mM stock in 100% DMSO. […]. The plate was then placed into the Cytofluor 4000 instrument which had been set to 340 nm excitation/490 nm emission, automatic mode for 21 cycles and the plate read in a kinetic mode. EC50 determinations were carried out as described for the IC50 determinations.

[2] = tested on: HCV replicon (Renilla luciferase reporter) in HUH-7 cells; assay: HCV replicon luciferase reporter assay; assay type: cell-based, HCV strain 1b; details: Huh-7, 96 h, 4 days
Source text: As a secondary assay, EC50 determinations from the replicon FRET assay were confirmed in a replicon luciferase reporter assay. Utilization of a replicon luciferase reporter assay was first described by Krieger et al (Krieger N, Lohmann V, and Bartenschlager R, J. Virol. 75(10):4614-4624 (2001)). The replicon construct described for our FRET assay was modified by inserting cDNA encoding a humanized form of the Renilla luciferase gene and a linker sequence fused directly to the 3′-end of the luciferase gene. This insert was introduced into the replicon construct using an AscI restriction site located in core, directly upstream of the neomycin marker gene. The adaptive mutation at position 1179 (serine to isoleucine) was also introduced (Blight K J, Kolykhalov, A A, Rice, C M, Science 290(5498):1972-1974). […] Following 4 days in a 37° C./5% CO2 incubator, cells were analyzed for Renilla Luciferase activity using the Promega Dual-Glo Luciferase Assay System. […] Plates were read on a Packard TopCount NXT using a luminescence program.
The percentage inhibition was calculated using the formula below: % control=average luciferase signal in experimental wells (+compound) average luciferase signal in DMSO control wells (− compound)
The values were graphed and analyzed using XLfit to obtain the EC50 value.

Structure (SMILES): COc1c(O[C@@H]2C[C@H]3C(=O)N[C@]4(C(=O)NS(=O)(=O)C5CC5)C[C@H]4/C=C\CCCCC[C@H](NC(=O)OC(C)(C)C)C(=O)N3C2)ccc2c(Cl)nccc12 [Compound 3]
- EC50 ([1]; 96 h, HUH-7 replicon cells, 4 days, read-out: EC50 in the replicon FRET assay): 14.6 nM
- EC50 ([1]; Huh-7, HCV replicon, which replicon assay not stated, read-out: EC50 Activity Range): < 100 nM
- EC50 [2]: 5.5 nM

Source: patent US20080107623A1, “Inhibitors of Hepatitis C Virus” (Bristol-Myers Squibb Company, priority 2006, published 2008)
